Data reported in US10035792B2, “Resorcinol derivative as HSP90 inhibitor” (priority 2015, dated 2018).
Like-named read-outs stand apart in the source and are kept apart here.

Columns and labels:
HSP90α = HSP90α (Homo sapiens (Human), UniProt P07900); assay: Fluorescence polarization (FP) HSP90-alpha target binding assay
Excerpt: In the present invention, the method of fluorescence polarization (FP) was used to establish the screening platform for HSP90-alpha inhibitors. The principle based on is to calculate fluorescence polarization values in horizontal and vertical directions by detecting molecular weight changes before and after interaction of fluorescent labeled small molecules with other molecules, in use for correlation analysis. If binding equilibria between the fluorescent labeled small molecule and the macromolecule is established, it moves slowly when excited, and the fluorescence polarization values measured will increase. If the fluorescent labeled small molecule binding to the macromolecule is replaced with other ligands, its rotational or inversional speed in free state will become faster, the emitted light would be depolarized with respect to the exciting light plane, and thus the polarized light value measured will decrease, so as to calculate the polarization value of the sample (the unit of polarization value is mP).
The fluorescent labeled small molecule used in the present invention was VER-00051001 (synthesized by reference to the synthetic method described in JMC, 2008, 51, 196-218). The reaction was carried out in a 384-well black plate, using the reaction hydrophobic protein HFB buffer: 100 mM Tris.Cl pH 7.4, 20 mM KCl, 6 mM MgCl2, 5 μg/mL BSA, 25 nM full-length Hsp90U, 10 nM VER-51001. The volume of the reaction system was […], containing 5 nM GM-BODIPY (geldanamycin), 30 nM HSP90 and the test small molecular compound or DMSO (dimethyl sulfoxide), wherein the DMSO content was 2% o. Additional two group wells were established, wherein the wells only added with HFB buffer were used as blank controls, and the wells further added with 5 nM GM-BODIPY were used as negative controls. The reaction was carried out at 4° C. for 12-16 hours. The mP value was measured by Biotek microplate reader at 485 nm of excitation wavelength and 535 nm of emission wavelength. The inhibition rate was calculated using the following equation: (Compound-free mP−Compound mP)/(Compound-free mP−negative control mP)×100%

[1] = test system: human lung cancer cell line A549; assay: Tumor cell growth inhibition, SRB staining, A549; type: cell-based; conditions: A549, 72 h
Protocol: The growth inhibition assay of tumor cells was detected by sulforhodamine B (SRB) staining method. The specific steps were as follows: inoculating human colon cancer cell line HCT116 and human lung cancer cell line A549 (purchased from American Type Culture Collection, ATCC) at the logarithmic growth phase into a 96-well micro culture plate at an appropriate concentration of 4000 cells/well, 100 μL for each well; after culturing overnight, adding with the compound at different concentrations (100, 10, 1, 0.1, 0.01 μM) to react for 72 h, wherein triplicate wells were set up for each concentration, and solvent control wells with the corresponding concentration and zero wells without cells were also set up. After the completion of the reaction, the culture medium was removed from the adherent cells, the later was added with 10% (w/v) trichloroacetic acid (100 μL/well) at 4° C. to fix for 1 h, and then washed five times with distilled water. After drying at room temperature, 100 μL of SRB solution (4 mg/mL, dissolved in 1% glacial acetic acid) was added into each well, followed by incubation and staining for 15 min at room temperature. The uncombined SRB was removed by washing five times with 1% glacial acetic acid. After drying at room temperature, 100 μL of 10 mM Tris solution was added into each well, and the optical density (OD) at 515 nm was measured by a […] microplate reader. The inhibition rate of the drug to tumor cell growth was calculated according to the following equation: Inhibition rate (%)=(OD of control well-OD of drug well)/OD of control well×100%. The experiment was repeated twice.

[2] = fluorescence polarization, read-out: Target binding ability HSP90α FP IC50

EC50 [1]	IC50 (HSP90α; [2])	SMILES	IC50 (HSP90α)
0.02 to 0.1 µM	0.02 to 0.1 µM	CCNC(=O)c1noc(-c2cc(C(C)C)c(O)cc2O)c1-c1cc2c(s1)CCN(C)C2 [Example 9, 5-(2,4-dihydroxyl-5-isopropylphenyl)-N-ethyl-4-(5-methyl-4,5,6,7-tetrahydrothieno[3,2-c]pyridin-2-yl)isoxazole-3-carboxamide]	
0.02 to 0.1 µM	0.02 to 0.1 µM	CCNC(=O)c1noc(-c2cc(C(C)C)c(O)cc2O)c1-c1nc2c(s1)CCN(C)C2 [Example 10, 5-(2,4-dihydroxyl-5-isopropyl-phenyl)-N-ethyl-4-(5-methyl-4,5,6,7-tetrahydrothiazolo[4,5-c]pyridin-2-yl)isoxazole-3-carboxamide]	
< 0.02 µM	0.02 to 0.1 µM	CCNC(=O)c1noc(-c2cc(C(C)C)c(O)cc2O)c1-c1ccc2c(n1)CCN(C)C2 [Example 11, 5-(2,4-dihydroxyl-5-isopropylphenyl)-N-ethyl-4-(6-methyl-5,6,7,8-tetrahydro-1,6-naphthyridin-2-yl)isoxazole-3-carboxamide]	
< 0.02 µM	< 0.02 µM	CCNC(=O)c1onc(-c2cc(C(C)C)c(O)cc2O)c1-c1ccc2c(c1)CCN(C)C2 [Example 12, 3-(2,4-dihydroxyl-5-isopropylphenyl)-N-ethyl-4-(2-methyl-1,2,3,4-tetrahydroisoquinolin-6-yl)isoxazole-5-carboxamide]	
> 0.1 µM	0.02 to 0.1 µM	Cc1nnc(-c2noc(-c3cc(C(C)C)c(O)cc3O)c2-c2ccc3c(c2)CCN(C)C3)[nH]1 [Example 15, 4-isopropyl-6-[4-(2-methyl-1,2,3,4-tetrahydroisoquinolin-6-yl)-3-(5-methyl-4H-1,2,4-triazol-3-yl)isoxazol-5-yl]benzene-1,3-diol]	
< 0.02 µM	0.02 to 0.1 µM	CCc1cnc(-c2noc(-c3cc(C(C)C)c(O)cc3O)c2-c2ccc3c(c2)CCN(C)C3)[nH]1 [Example 16, 4-(3-(5-ethyl-1H-imidazol-2-yl)-4-(2-methyl-1,2,3,4-tetrahydroisoquinolin-6-yl)isoxazol-5-yl)-6-isopropylbenzene-1,3-diol]	
0.02 to 0.1 µM	0.02 to 0.1 µM	CCc1cnc(-c2noc(-c3cc(C(C)C)c(O)cc3O)c2-c2ccc3c(c2)CCN(CCO)C3)[nH]1 [Example 17, 4-(3-(5-ethyl-1H-imidazol-2-yl)-4-(2-(2-hydroxyethyl)-1,2,3,4-tetrahydroisoquinolin-6-yl)isoxazol-5-yl)-6-isopropylbenzene-1,3-diol]	
0.02 to 0.1 µM	< 0.02 µM	CCNC(=O)c1noc(-c2cc(C(C)C)c(O)cc2O)c1-c1cc2c(s1)C(C)(C)NCC2 [Example 18, 5-(2,4-dihydroxyl-5-isopropylphenyl)-4-(7,7-dimethyl-4,5,6,7-tetrahydrothieno[2,3-c]pyridin-2-yl)-N-ethyl-isoxazole-3-carboxamide]	
> 0.1 µM	0.02 to 0.1 µM	CCNC(=O)c1noc(-c2cc(C(C)C)c(O)cc2O)c1-c1cnc2c(c1)CN(C)CC2 [Example 19, 5-(2,4-dihydroxyl-5-isopropylphenyl)-N-ethyl-4-(6-methyl-5,6,7,8-tetrahydro-1,6-naphthyridin-3-yl)isoxazole-3-carboxamide]	
> 0.1 µM	0.02 to 0.1 µM	CC(C)c1cc(-c2onc(C(O)C(F)(F)F)c2-c2ccc3c(c2)CCN(C)C3)c(O)cc1O (stereo not drawn) [Example 20, 4-isopropyl-6-(4-(2-methyl-1,2,3,4-tetrahydroisoquinolin-6-yl)-3-(2,2,2-trifluoro-1-hydroxyethyl)isoxazol-5-yl)benzene-1,3-diol]	
> 0.1 µM	< 0.02 µM	CC(C)c1cc(-c2onc(C(=N)NC#N)c2-c2ccc3c(c2)CCN(C)C3)c(O)cc1O [Example 21, N-cyano-5-(2,4-dihydroxyl-5-isopropylphenyl)-4-(2-methyl-1,2,3,4-tetrahydroisoquinolin-6-yl)isoxazole-3-carboxamidine]	
0.02 to 0.1 µM	< 0.02 µM	CCNC(=O)c1noc(-c2cc(C(C)C)c(O)cc2O)c1-c1cc2c(s1)CCN(C)CC2 [Example 22, 5-(2,4-dihydroxyl-5-isopropylphenyl)-N-ethyl-4-(6-methyl-5,6,7,8-tetrahydro-4H-thieno[2,3-d]azepin-2-yl) isoxazole-3-carboxamide]	
0.02 to 0.1 µM	< 0.02 µM	CCNC(=O)c1noc(-c2cc(C(C)C)c(O)cc2O)c1-c1cc2n(c1)CCN(C)C2 [Example 23, 5-(2,4-dihydroxyl-5-isopropylphenyl)-N-ethyl-4-(2-methyl-1,2,3,4-tetrahydropyrrolo[1,2-a]pyrazin-7-yl)isoxazole-3-carboxamide]	
0.02 to 0.1 µM	0.02 to 0.1 µM	CCNC(=O)c1noc(-c2cc(C(C)C)c(O)cc2O)c1-c1nc2c(n1C)CCN(CC(C)C)C2 [Example 24, 5-(2,4-dihydroxyl-5-isopropylphenyl)-N-ethyl-4-(5-isobutyl-1-methyl-4,5,6,7-tetrahydro-1H-imidazo[4,5-c]pyridin-2-yl)isoxazole-3-carboxamide]	
0.02 to 0.1 µM	< 0.02 µM	CCNC(=O)c1noc(-c2cc(C(C)C)c(O)cc2O)c1-c1ccc2c(c1)CCN(C)CC2 [Example 25, 5-(2,4-dihydroxyl-5-isopropylphenyl)-N-ethyl-4-(3-methyl-2,3,4,5-tetrahydro-1H-benzo[d]azepin-7-yl)isoxazole-3-carboxamide]	
0.02 to 0.1 µM	< 0.02 µM	CCNC(=O)c1noc(-c2cc(C(C)C)c(O)cc2O)c1-c1ccc2c(c1)CCCN(C)C2 [Example 26, 5-(2,4-dihydroxyl-5-isopropylphenyl)-N-ethyl-4-(2-methyl-2,3,4,5-tetrahydro-1H-benzo[c]azepin-7-yl)isoxazole-3-carboxamide]	

SMILES	EC50 [1]	IC50 (HSP90α; [2])	IC50 (HSP90α)
CCNC(=O)c1noc(-c2cc(C(C)C)c(O)cc2O)c1-c1ccc2c(c1)C1CCC2N1 (stereo not drawn) [Example 4, 5-(2,4-dihydroxyl-5-isopropylphenyl)-N-ethyl-4-(1,2,3,4-tetrahydro-1,4-epiminonaphth-6-yl)isoxazole-3-carboxamide]	0.02 to 0.1 µM		0.02 to 0.1 µM
CCNC(=O)c1noc(-c2cc(C(C)C)c(O)cc2O)c1-c1ccc2c(c1)C1CCC2N1C (stereo not drawn) [Example 5, 5-(2,4-dihydroxyl-5-isopropylphenyl)-N-ethyl-4-(9-methyl-1,2,3,4-tetrahydro-1,4-epiminonaphth-6-yl)isoxazole-3-carboxamide]	< 0.02 µM		0.02 to 0.1 µM
CCNC(=O)c1noc(-c2cc(C(C)C)c(O)cc2O)c1-c1ccc2c(c1)C1CCC2N1CC (stereo not drawn) [Example 6, 5-(2,4-dihydroxyl-5-isopropylphenyl)-N-ethyl-4-(9-ethyl-1,2,3,4-tetrahydro-1,4-epiminonaphth-6-yl)isoxazole-3-carboxamide]	< 0.02 µM		0.02 to 0.1 µM
CCNC(=O)c1noc(-c2cc(C(C)C)c(O)cc2O)c1-c1ccc2c(c1)C1CCC2N1C(C)C (stereo not drawn) [Example 7, 5-(2,4-dihydroxyl-5-isopropylphenyl)-N-ethyl-4-(9-isopropyl-1,2,3,4-tetrahydro-1,4-epiminonaphth-6-yl)isoxazole-3-carboxamide]	< 0.02 µM		0.02 to 0.1 µM
CCNC(=O)c1noc(-c2cc(C(C)C)c(O)cc2O)c1-c1ccc2c(c1)C1CCC2N1CC(C)C (stereo not drawn) [Example 8, 5-(2,4-dihydroxyl-5-isopropylphenyl)-N-ethyl-4-(9-isobutyl-1,2,3,4-tetrahydro-1,4-epiminonaphth-6-yl)isoxazole-3-carboxamide]	< 0.02 µM		0.02 to 0.1 µM
